Among the test systems are MDA-N; T-47D breast; SW-620 colon; SN12C renal; MDA-MB-435; NCI-H23 lung; HOP-92 NSCLC; SF-295 CNS; BT-549 breast.
What all share (assay): NCI tumour cell line growth inhibition, 48 h

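How tested: cells in 96-well plates exposed to compound for 48 hours at five concentrations. At the TGI there is no net growth.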

`C1=CC2=CC=CC3c4nc5ccc6ccccc6c5nc4C(=C1)C23` (configuration not stated): the TGI with MDA-N, in the test with T-47D breast, with SW-620 colon, in the test on SN12C renal, in the test on MDA-MB-435 and with NCI-H23 lung was > 100 µM each time. In addition, the TGI in the test on HOP-92 NSCLC and in the test on SF-295 CNS was > 100 µM throughout.

As to `COc1ccc(CC(O)CN2CCOCC2)cc1` (configuration not stated), the TGI in the test with MDA-N, in the test on T-47D breast, in the test on BT-549 breast, with SW-620 colon, in the test with SN12C renal and in the test with MDA-MB-435 was > 100 µM in each case. Besides, the TGI in the test on NCI-H23 lung, with HOP-92 NSCLC and with SF-295 CNS was > 100 µM each time.

As for `COc1ccc2nc3cc(Cl)ccc3c(NCCCNCCCNc3c4ccc(Cl)cc4nc4ccc(OC)cc34)c2c1`, the TGI came to 0.173 µM in the test on MDA-N; 1.23 µM in the test on T-47D breast; 1.67 µM in the test on BT-549 breast; 0.285 µM in the test on SN12C renal; 0.144 µM in the test on NCI-H23 lung; 0.347 µM with HOP-92 NSCLC. The TGI with SF-295 CNS amounted to 0.183 µM.

`O=C(CCCN1CCC2(CC1)CC(=O)N(N1CCOCC1)C2=O)c1ccccc1`: the TGI was > 100 µM in the test on MDA-N; > 100 µM in the test on T-47D breast; 27.9 µM with BT-549 breast; > 100 µM in the test on SW-620 colon; > 100 µM in the test on SN12C renal; 35.4 µM in the test on MDA-MB-435. Moreover, the TGI in the test with NCI-H23 lung and in the test on SF-295 CNS was > 100 µM in each case.

In the case of `COc1nc(C#CCC(C)O)nc(OC)n1` (configuration not stated), the TGI is > 100 µM with MDA-N; > 100 µM with T-47D breast; 36 µM with BT-549 breast; 47.7 µM in the test on SW-620 colon; 42.5 µM in the test on SN12C renal; 54.6 µM in the test with MDA-MB-435. The TGI with NCI-H23 lung is 43.4 µM; in the test with SF-295 CNS, > 100 µM.

For `CC1(C)N=C(C(N)=O)c2ncn(CCCO)c2N1`, the TGI in the test with MDA-N, in the test with T-47D breast, in the test with SW-620 colon, in the test on SN12C renal, in the test on MDA-MB-435 and in the test on NCI-H23 lung was > 100 µM each time. The TGI with HOP-92 NSCLC and in the test on SF-295 CNS was > 100 µM throughout.

With `C=C[C@@H]1C(CO)=CCC2[C@H]1CCC1C(C)(C)C(=O)CC[C@]21C` (some centres not stated), the TGI with MDA-N, in the test with T-47D breast, with SW-620 colon, with SN12C renal, in the test on MDA-MB-435 and with NCI-H23 lung was > 100 µM each time. Also, the TGI in the test with HOP-92 NSCLC and in the test on SF-295 CNS was > 100 µM throughout.

Consider `Cc1nn(C(=O)Cc2ccccc2)c2c1C(c1ccc(O)cc1)SC(N)=N2` (configuration not stated), for which the TGI with MDA-N, in the test with T-47D breast, with BT-549 breast, in the test with SW-620 colon, in the test with SN12C renal and in the test with MDA-MB-435 was > 100 µM throughout. For the same molecule, the TGI in the test with NCI-H23 lung and with SF-295 CNS was > 100 µM each time.

As to `CO[C@]12CC(=O)C3(C(C[C@H]4CC5CC=C6C[C@@H](OC(C)=O)CC[C@]6(OC(C)=O)C5C[C@@]43C)C1)C1C[C@H]3[C@@H]4CC=C5C[C@@H](OC(C)=O)CC[C@]5(OC(C)=O)[C@H]4CC[C@]3(C)C12` (some centres not stated), the TGI with MDA-N is 30.6 µM; in the test on T-47D breast, 33.4 µM; with SW-620 colon, > 100 µM; in the test on SN12C renal, 29.8 µM; with MDA-MB-435, > 100 µM; in the test on NCI-H23 lung it was 39 µM. For the same molecule, the TGI was > 100 µM in the test on HOP-92 NSCLC and 54 µM with SF-295 CNS.

`CCOC(=O)c1c(-c2ccc(OC)cc2)c(C#N)c(=S)n(C2OC(COC(C)=O)C(OC(C)=O)C(OC(C)=O)C2OC(C)=O)c1C` (configuration not stated): the TGI in the test on MDA-N, in the test on T-47D breast, in the test with SW-620 colon, in the test with SN12C renal, in the test with MDA-MB-435 and in the test with NCI-H23 lung was > 100 µM throughout. Also, the TGI with HOP-92 NSCLC was 83.4 µM; with SF-295 CNS, > 100 µM.

In the case of `C=CCn1c(=O)ccn(COCCO)c1=O`, the TGI with MDA-N, in the test with T-47D breast, in the test with BT-549 breast, in the test on SW-620 colon, with SN12C renal and in the test on MDA-MB-435 was > 100 µM each time. Besides, the TGI in the test on NCI-H23 lung and with HOP-92 NSCLC was > 100 µM each time.

With `O=C1c2cc3c(cc2CC1Br)CCC3` (configuration not stated), the TGI came to 3.48 µM in the test on MDA-N; 5.68 µM in the test with T-47D breast; 4.49 µM with BT-549 breast; 3 µM in the test with SW-620 colon; 3.22 µM with SN12C renal; 4.23 µM in the test on MDA-MB-435. The TGI in the test with NCI-H23 lung amounted to 9.27 µM; with SF-295 CNS, 11.5 µM.

As to `CS(=O)(=O)OCCn1c(=O)n(CCOS(C)(=O)=O)c(=O)n(CCOS(C)(=O)=O)c1=O`, the TGI in the test with MDA-N, with T-47D breast, in the test with BT-549 breast, in the test on SW-620 colon, with SN12C renal and in the test with MDA-MB-435 was > 100 µM each time. Further, the TGI in the test with NCI-H23 lung and in the test on SF-295 CNS was > 100 µM each time.

Consider `Cc1ccccc1C(O)(c1nccn1C)c1nccn1C`, for which the TGI in the test with MDA-N, in the test with T-47D breast, in the test on BT-549 breast, with SW-620 colon, in the test with SN12C renal and with MDA-MB-435 was > 100 µM in each case. Moreover, the TGI with HOP-92 NSCLC and with SF-295 CNS was > 100 µM in each case.

As to `O=C(/C=C/c1ccsc1)c1ccsc1`, the TGI turned out to be 49.7 µM in the test with MDA-N; 92.2 µM in the test with T-47D breast; 60.1 µM in the test on SW-620 colon; 40.4 µM with SN12C renal; 42.4 µM with MDA-MB-435; 54.8 µM in the test with NCI-H23 lung. In addition, the TGI with SF-295 CNS was > 100 µM.

`CCN(CCO)CC1COc2ccccc2O1` (configuration not stated): the TGI in the test with MDA-N, with T-47D breast, with BT-549 breast, in the test with SN12C renal, with MDA-MB-435 and in the test with NCI-H23 lung was > 100 µM throughout. Besides, the TGI in the test with HOP-92 NSCLC and with SF-295 CNS was > 100 µM in each case.

`Cc1c2c(n(CCc3ccc(Cl)cc3)c1C)NN=C(C#N)S2(=O)=O`: the TGI with MDA-N, in the test on T-47D breast, in the test on SW-620 colon, in the test with SN12C renal, in the test on MDA-MB-435 and in the test on NCI-H23 lung was > 100 µM in each case.

Consider `O=C(N=Nc1cc(Cl)ccc1Cl)NNc1cc(Cl)ccc1Cl`, for which the TGI in the test on MDA-N is 84.4 µM; in the test on T-47D breast, > 100 µM; in the test with SN12C renal, 52.5 µM; in the test with MDA-MB-435, 30 µM; in the test on NCI-H23 lung, 53.1 µM; in the test with HOP-92 NSCLC, 32.9 µM. For the same molecule, the TGI with SF-295 CNS is > 100 µM.

Consider `CCCCC1c2c([nH]c3ccccc23)C2C(=O)N(c3ccc(OC)cc3)C(=O)C2C1CCC` (configuration not stated), for which the TGI in the test with MDA-N is 7.45 µM; with T-47D breast, > 10 µM; in the test with SW-620 colon it was > 10 µM; with SN12C renal, 4.04 µM; in the test with MDA-MB-435 it was 4.29 µM; in the test on NCI-H23 lung it was > 10 µM. For the same molecule, the results for the TGI in the test with HOP-92 NSCLC and with SF-295 CNS were 7.86 µM and > 10 µM, respectively.

Take `CCCNC(=O)CCC(C)[C@H]1CCC2C3C(C[C@H](OC(C)=O)[C@@]21C)[C@@]1(C)CCC2(C[C@H]1C[C@H]3OC(C)=O)OOC1(CCC(C)CC1)OO2` (some centres not stated): the TGI in the test with MDA-N was 28.6 µM; in the test on T-47D breast, 38.4 µM; in the test on BT-549 breast it was 60.5 µM; with SN12C renal, > 100 µM; in the test on MDA-MB-435, 39.5 µM; with NCI-H23 lung, 18.7 µM. In addition, the results for the TGI in the test with HOP-92 NSCLC and in the test on SF-295 CNS were 1.98 µM and 52.5 µM, respectively.

For the molecule `COc1cc(C2CC(C)(Nc3ccccc3)Oc3cc4c(cc32)OCO4)cc(OC)c1OC` (configuration not stated), the TGI in the test with MDA-N was 0.183 µM; with BT-549 breast, > 100 µM; in the test with SW-620 colon, > 100 µM; in the test with SN12C renal, > 100 µM; with MDA-MB-435, 0.0688 µM; with NCI-H23 lung, > 33.6 µM. Moreover, the values for the TGI with HOP-92 NSCLC and with SF-295 CNS were > 100 µM and 3.57 µM, respectively.

With `COC(=O)c1c2c(cc3c1CC1(C3)Cc3cc4c(c(C(=O)OC)c3C1)CCCC4)CCCC2`, the TGI with MDA-N, in the test with T-47D breast, in the test on SN12C renal, with MDA-MB-435, in the test with NCI-H23 lung and in the test on HOP-92 NSCLC was > 100 µM each time. In the test with SF-295 CNS, the TGI is > 100 µM.

Take `Cc1c(S(=O)(=O)/N=C(\N)Nc2ccc(Cl)cc2)sc2ccc(Cl)cc12`: the TGI is 47.1 µM with MDA-N; > 100 µM in the test on T-47D breast; 58 µM in the test on BT-549 breast; 58.1 µM in the test with SW-620 colon; 31.2 µM with SN12C renal; 41.5 µM with NCI-H23 lung. Moreover, the figures for the TGI in the test on HOP-92 NSCLC and with SF-295 CNS were 42.2 µM and 46.7 µM, respectively.

Regarding `O=[N+]([O-])/C(C(Cl)=C(Cl)Cl)=C(\Nc1cccc2cccnc12)SCc1ccccc1`, the TGI with MDA-N is > 100 µM; with T-47D breast, 40.2 µM; in the test on BT-549 breast it was 35.6 µM; with SW-620 colon, 36.8 µM; in the test on SN12C renal, 60.7 µM; in the test with MDA-MB-435, 37.7 µM. Also, the values for the TGI in the test with NCI-H23 lung and in the test with SF-295 CNS were 32.7 µM and 37.4 µM, respectively.

For the origin of these results see PubChem BioAssay (NCI).
